Data: patent publication US20080289052A1, “Method of Constructing Animal Having Cancer Cells Transplanted Thereinto” (priority 2004, published 2008)

Test system: cancer cells A-549
Assay: Anti-tumor agent test in nude mice transplanted subcutaneously with an A-549 cancer cells sheet
Format: in vivo
Method: A cell culture base was coated with the temperature-responsive polymer poly(N-isopropylacrylamide) in an amount of 1.9 μg/cm^2 and the cancer cells A-549 was cultivated (2×10^4 cells were seeded; 37° C. in 5% CO2). Three days later, the cancer cells (A-549) on the culture base were confirmed to have become confluent; thereafter, a poly(vinylidene difluoride) [PVDF] membrane not coated with a fibrin gel was gently placed over the cultured cell sheet so that the cultured cancer cells adhered to it; then, the cell culture base was cooled at 20° C. for 60 minutes. After the cooling, a sheet of cancer cells (7 mm×17 mm×2 mm; 5×10^5 cells) was detached together with PVDF membrane. The back of each of 10 nude mice was incised linearly beneath the skin and the subcutaneous tissue was detached with forceps to create a pocket, into which the above-described cancer cells sheet was inserted. After the inserting, the incised part was sutured to complete the transplantation. The dimensions of the tumor that developed after the transplantation were measured over the skin with a micrometer and the volume of the tumor was calculated assuming that it was an ellipsoid. The volume of the tumor was also calculated, this time on the assumption that it was a cylindroid (volume of cylindroid=n/4×major axis of the tumor×minor axis of the tumor×thickness of the tumor). Four weeks after the transplantation, the mean volume of ellipsoid was 578.7+322.8 mm^3, the mean volume of cylindroid was 1258.7+897.9 mm^3, and the mean tumor weight was 785.4±394 mg. The decrease in the tumor volume that occurred immediately after the transplantation as shown in FIG. 1 (tumor assumed as an ellipsoid) and FIG. 2 (as a cylindroid) was absent and the tumor grew bigger as more days elapsed after the transplantation.
The cancer cells transplanted animals prepared in Example 2 were administered a total of four times on a once-a-week basis with 3 mg of 5-fluorouracil (5-FU), a known anti-tumor agent, through the tail vein as it was dissolved in 0.3 ml of 1% ethyl alcohol containing physiological saline. Four weeks after the administration, the mean volume of ellipsoid was 279.6±127.1 mm^3, the mean volume of cylindroid was 619.3±262.9 mm^3, and the mean tumor weight was 369.3±123 mg. As it turned out, the cancer cells transplanted animals described in the present invention got the volume and weight of the tumor to be reduced by receiving the anti-tumor agent. Obviously, the cancer cells transplanted animals of the present invention are useful in selecting an effective anti-tumor agent.

[1] = A-549 cell sheet transplanted nude mice of Example 2, 3 mg through the tail vein once a week, four times, four weeks after the administration

In the case of O=c1[nH]cc(F)c(=O)[nH]1 [5-fluorouracil], the mean tumor weight [1] is reported as 369.3 ± 123 mg, the “mean volume of cylindroid (tumor volume)” value [1] is reported as 619.3±262.9 mm^3 and the “mean volume of ellipsoid (tumor volume)” value [1] is reported as 279.6±127.1 mm^3. The “volume and weight of the tumor (effect of receiving the anti-tumor agent)” value (A-549 cell sheet transplanted nude mice, compared with untreated animals of Example 2) was “reduced”.
